Measurements from publication PMC9921301, “Design, Synthesis, and Antiproliferative Activity of New 5-Chloro-indole-2-carboxylate and Pyrrolo[3,4-b]indol-3-one Derivatives as Potent Inhibitors of EGFR^T790M/BRAF^V600E Pathways” (Molecules, 2023).
Like-named read-outs stand apart in the source and are kept apart here.

Columns and labels:
[1] = test system: HT-29 (colon cancer cell line); test: Antiproliferative assay, HT-29; type: cell-based; conditions: Homo sapiens, read-out: Antiproliferative Activity IC50 ± SEM HT-29
Method: (§1) For ease of manipulation, the average (GI50) versus the four cancer cell lines was used.
(§2) To investigate the antiproliferative potential of 3a–e, 4a–c, and 5a–c, the MTT assay was carried out using various cell lines in accordance with previously reported procedures. See Appendix SA (Supplementary Materials). […]
(§3) ethylenediamine tetra acetic acid (EDTA) was used to passage the cells after every 2-3 days. 96-well flat-bottomed cell culture plates were used to seed the cells at a density of 10^4 cells mL-1. The medium was aspirated from all the wells of culture plates after 24 h followed by the addition of synthesized compounds (in 200 μL medium to yield a final concentration of 0.1% (v/v) dimethylsulfoxide) into individual wells of the plates.
(§4) Four wells were designated to a single compound. The plates were allowed to incubate at 37°C for 96 h. Afterwards, the medium was aspirated and 3-[4,5-dimethylthiazol-2-yl]-2,5-diphenyltetrazolium bromide (MTT) (0.4 mg/mL) in medium was added to each well and subsequently incubated for 3 h. The medium was aspirated and 150 μL dimethyl sulfoxide (DMSO) was added to each well. The plates were vortexed followed by the measurement of absorbance at 540 nm on a microplate reader. The results were presented as inhibition (%) of proliferation in contrast to controls comprising 0.1% 4.2.1.2. Assay for antiproliferative effect
(§5) To explore the antiproliferative potential of compounds propidium iodide fluorescence assay was performed using different cell lines such as Panc-1 (pancreas cancer cell […]
(§6) (epithelial cancer cell line), respectively. To calculate the total nuclear DNA, a fluorescent dye (propidium iodide, PI) is used which can attach to the DNA, thus offering a quick and precise technique. PI cannot pass through the cell membrane and its signal intensity can be considered as directly proportional to quantity of cellular
(§7) DNA. Cells whose cell membranes are damaged or have changed permeability are counted as dead ones. The assay was performed by seeding the cells of different cell lines at a density of 3000-7500 cells/well (in200μl medium) in culture plates followed […]
(§8) The medium was removed; the compounds were added to the plates at 10 μM concentrations (in 0.1% DMSO) in triplicates, followed by incubation for 48h. DMSO (0.1%) was used as control. After incubation, medium was removed followed by the addition of PI (25 μl, 50μg/mL in water/medium) to each well of the plates. At -80 °C, the plates were allowed to freeze for 24 h, followed by thawing at 25 °C. A fluorometer (Polar-Star BMG Tech) was used to record the readings at excitation and emission wavelengths of 530 and 620 nm for each well. The percentage cytotoxicity of compounds was calculated using the following formula:
(§9) Where ATC= Absorbance of treated cells and AC= Absorbance of control. […]
(§10) was used as positive control in the assay. […]

BRAF^V600E [2] = target: T1, BRAF^V600E (Mus musculus, UniProt P28028, V585E); test: V600E mutant BRAF kinase assay; type: biochemical; conditions: read-out: BRAF^V600E Inhibition IC50 ± SEM
T1 construct: Mouse full-length GST-tagged; GST; purchased Invitrogen PV3849
T1 sequence (P28028 whole entry V585E): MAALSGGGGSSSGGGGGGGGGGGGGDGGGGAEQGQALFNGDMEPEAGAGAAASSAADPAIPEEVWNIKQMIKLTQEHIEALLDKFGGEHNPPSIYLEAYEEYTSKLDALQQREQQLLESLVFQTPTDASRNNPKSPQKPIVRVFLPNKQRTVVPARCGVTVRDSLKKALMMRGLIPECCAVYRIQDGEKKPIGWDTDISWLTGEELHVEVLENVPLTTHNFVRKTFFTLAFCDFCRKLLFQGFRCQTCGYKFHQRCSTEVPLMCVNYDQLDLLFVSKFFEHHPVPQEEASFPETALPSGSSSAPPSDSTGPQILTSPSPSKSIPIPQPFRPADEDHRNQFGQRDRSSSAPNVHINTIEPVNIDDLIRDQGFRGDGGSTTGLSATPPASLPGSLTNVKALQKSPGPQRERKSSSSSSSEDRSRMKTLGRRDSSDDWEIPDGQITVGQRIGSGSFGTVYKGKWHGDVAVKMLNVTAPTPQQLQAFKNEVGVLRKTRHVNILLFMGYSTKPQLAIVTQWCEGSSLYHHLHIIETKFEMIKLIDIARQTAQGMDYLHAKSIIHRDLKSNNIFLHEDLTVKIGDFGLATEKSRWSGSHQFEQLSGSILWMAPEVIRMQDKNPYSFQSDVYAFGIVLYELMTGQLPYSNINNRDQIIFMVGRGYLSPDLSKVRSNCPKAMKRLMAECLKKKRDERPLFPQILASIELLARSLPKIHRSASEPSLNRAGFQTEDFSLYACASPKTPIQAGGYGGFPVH
Method: V600E mutant BRAF kinase assay was performed to investigate the activity of […]
Mouse full-length GST-tagged
BRAFV600E (7.5 ng, Invitrogen, PV3849) was pre -incubated with drug (1 µL) and assay dilution buffer (4 µL) for 6 0 min at 25 °C. In assay dilution buffer, a solution (5 µL) containing MgCl2 (30 mM), ATP (200 µM), recombinant human full length (200 ng) […] N-terminal His-tagged MEK1 (Invitrogen) was added to start the assay, after incubation for 25 min at 25 °C. The assay was stopped using 5X protein denaturing buffer (LDS) solution (5 µL). To further denature the protein, heat (70° C) was applied […]
electrophoresis (at 200 V). 10 µL of each reaction was loaded into the precast plates and electrophoresis was allowed to proceed. After completion of electrophoresis, the front part of the precast gel plate (holding hot ATP) was cut and afterwards cast -off.
The dried gel was developed using a phosphor screen. […]
Computerized Prism 5 program was used to statistically analyzed data using one-way ANOVA test followed by Tukey’s as post ANOVA for multiple comparison at P ≤.05.
Data were presented as mean ± SEM.

EGFR^T790M [3] = target: T2, EGFR^T790M (Homo sapiens, UniProt P00533, T790M); test: EGFR^T790M inhibitory assay (HTRF KinEASE-TK); type: biochemical; conditions: for IC50: HTRF KinEASE-TK, read-out: EGFR^T790M Inhibition IC50 ± SEM
T2 construct: purchased Carna Bioscience
T2 sequence (P00533 25-1210 T790M): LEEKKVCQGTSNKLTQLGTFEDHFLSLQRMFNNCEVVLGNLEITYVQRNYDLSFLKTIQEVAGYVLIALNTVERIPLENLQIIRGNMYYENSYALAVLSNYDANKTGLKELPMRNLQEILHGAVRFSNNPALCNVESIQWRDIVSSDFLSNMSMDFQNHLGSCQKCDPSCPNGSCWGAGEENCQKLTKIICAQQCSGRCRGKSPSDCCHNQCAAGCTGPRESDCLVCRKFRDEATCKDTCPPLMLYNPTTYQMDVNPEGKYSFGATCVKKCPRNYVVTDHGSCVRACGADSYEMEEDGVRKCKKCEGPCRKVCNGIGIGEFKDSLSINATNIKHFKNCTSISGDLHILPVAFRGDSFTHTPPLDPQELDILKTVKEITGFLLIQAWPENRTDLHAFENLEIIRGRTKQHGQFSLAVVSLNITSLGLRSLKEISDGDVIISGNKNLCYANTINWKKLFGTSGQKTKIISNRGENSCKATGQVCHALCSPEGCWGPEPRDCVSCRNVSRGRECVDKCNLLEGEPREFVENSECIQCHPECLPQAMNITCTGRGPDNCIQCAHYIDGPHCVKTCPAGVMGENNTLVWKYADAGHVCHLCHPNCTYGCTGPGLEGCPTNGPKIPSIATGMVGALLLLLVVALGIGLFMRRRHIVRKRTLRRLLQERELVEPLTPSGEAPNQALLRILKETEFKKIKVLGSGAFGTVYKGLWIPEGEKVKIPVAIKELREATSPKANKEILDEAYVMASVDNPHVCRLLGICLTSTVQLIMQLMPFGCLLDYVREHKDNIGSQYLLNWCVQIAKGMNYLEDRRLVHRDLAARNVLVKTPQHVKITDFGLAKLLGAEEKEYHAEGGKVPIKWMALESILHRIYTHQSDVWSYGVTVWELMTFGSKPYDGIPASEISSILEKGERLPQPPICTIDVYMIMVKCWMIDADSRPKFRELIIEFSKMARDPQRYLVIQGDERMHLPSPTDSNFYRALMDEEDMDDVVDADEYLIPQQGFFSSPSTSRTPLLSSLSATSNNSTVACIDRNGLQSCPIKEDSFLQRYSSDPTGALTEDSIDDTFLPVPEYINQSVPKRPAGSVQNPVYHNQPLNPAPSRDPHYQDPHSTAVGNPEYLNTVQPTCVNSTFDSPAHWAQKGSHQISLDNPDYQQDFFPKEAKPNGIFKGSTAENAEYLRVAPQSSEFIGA
Method: Osimertinib served as the positive control.
EGFRT790M inhibitory assay
The EGFR protein (EGFRT790M) was purchased from Carna Bioscience. The HTRF KinEASE-TK kit (Cat#62TK0PEB) was from Cisbio. All the other chemicals were […]
low volume, black, NBS), using Cisbio HTRF KinEASE -TK kit. The assay buffer contained 50 mM HEPES (Ph 7.0), 0.02% NaN3, 0.01% BSA, 0.1 mM Orthovanadate, […]
EGFR kinases was first incubated with compounds for 2 h respectively, then ATP/Peptide substrate mixture was added to initiate the reaction. After 30 min reaction at room temperature, the detection reagents were added. The TR-FRET signal was measured on PerkinElmer Envision using […]
The data was analyzed using Graph
Pad Prism (Version 6.0) software after three parallel experiments. […]

[4] = test system: LOX-IMVI melanoma cell line; test: LOX-IMVI melanoma cell line cytotoxicity assay (MTT); type: cell-based; conditions: Homo sapiens, 5-dose concentrations, read-out: LOX-IMVI Melanoma IC50 ± SEM
Method: The IC50 values of the test compounds were determined at 5-dose concentrations, with staurosporine serving as a control.
The anticancer activity of the synthesized derivatives was determined using the MTT cytotoxicity assay on LOX-IMVI melanoma cell line. See Appendix SA (Supplementary Materials).

[5] = Cell viability assay (MTT) on normal mammary epithelial cells; type: cell-based; conditions: human, MCF-10A normal mammary gland epithelial cells, four days of incubation
Method: The viability test was performed on a normal human mammary gland epithelial cell line (MCF-10A). The MTT test was used to assess the viability of compounds 3a–e, 4a–c, and 5a–c.
The MTT assay was used to determine how the synthesized compounds affected the viability of mammary epithelial cells (MCF-10A). See Appendix SA (Supplementary Materials). […]
4.2. Biological evaluation
4.2.1. Cytotoxic activity using MTT Assay and evaluation of IC50
MTT assay was performed to investigate the effect of the synthesized compounds on mammary epithelial cells (MCF-10A). The cells were propagated in medium consisting of Ham's F-12 medium/ Dulbecco's modified Eagle's medium (DMEM) (1:1) supplemented with 10% foetal calf serum, 2 mM glutamine, insulin (10 μg/mL), hydrocortisone (500 ng/mL) and epidermal growth factor (20 ng/mL). Trypsin ethylenediamine tetra acetic acid (EDTA) was used to passage the cells after every 2-3 days. 96-well flat-bottomed cell culture plates were used to seed the cells at a density of 10^4 cells mL-1. The medium was aspirated from all the wells of culture plates after 24 h followed by the addition of synthesized compounds (in 200 μL medium to yield a final concentration of 0.1% (v/v) dimethylsulfoxide) into individual wells of the plates.
as §4, with “The results were presented as inhibition (%) of proliferation in contrast to controls comprising 0.1% 4.2.1.2. Assay for antiproliferative effect” left out

[6] = test system: A-549 (epithelial cancer cell line); test: Antiproliferative assay, A-549; type: cell-based; conditions: Homo sapiens, A549; read-out: Antiproliferative Activity IC50 ± SEM A-549
Method: as §1, §2, §3, §4, §5, §6, §7, §8, §9, §10

[7] = test system: Panc-1 (pancreatic cancer cell line); test: Antiproliferative assay, Panc-1; type: cell-based; conditions: Homo sapiens, read-out: Antiproliferative Activity IC50 ± SEM Panc-1
Method: as §1, §2, §3, §4, §5, §6, §7, §8, §9, §10

[8] = test system: MCF-7 (breast cancer cell line); test: Antiproliferative assay, MCF-7; type: cell-based; conditions: Homo sapiens, MCF7; read-out: Antiproliferative Activity IC50 ± SEM MCF-7
Method: as §1, §2, §3, §4, §5, §6, §7, §8, §9, §10

[9] = test system: four human cancer cell lines (Panc-1, MCF-7, HT-29, A-549); test: Antiproliferative assay, average (GI50) versus the four cancer cell lines; type: cell-based; conditions: Homo sapiens; average versus the four cancer cell lines
Method: as §1, §2, §3, §4, §5, §6, §7, §8, §9, §10

EGFR [10] = target: T3, EGFR (Homo sapiens, UniProt P00533); test: EGFR-TK inhibitory assay
T3 sequence (P00533 669-1210): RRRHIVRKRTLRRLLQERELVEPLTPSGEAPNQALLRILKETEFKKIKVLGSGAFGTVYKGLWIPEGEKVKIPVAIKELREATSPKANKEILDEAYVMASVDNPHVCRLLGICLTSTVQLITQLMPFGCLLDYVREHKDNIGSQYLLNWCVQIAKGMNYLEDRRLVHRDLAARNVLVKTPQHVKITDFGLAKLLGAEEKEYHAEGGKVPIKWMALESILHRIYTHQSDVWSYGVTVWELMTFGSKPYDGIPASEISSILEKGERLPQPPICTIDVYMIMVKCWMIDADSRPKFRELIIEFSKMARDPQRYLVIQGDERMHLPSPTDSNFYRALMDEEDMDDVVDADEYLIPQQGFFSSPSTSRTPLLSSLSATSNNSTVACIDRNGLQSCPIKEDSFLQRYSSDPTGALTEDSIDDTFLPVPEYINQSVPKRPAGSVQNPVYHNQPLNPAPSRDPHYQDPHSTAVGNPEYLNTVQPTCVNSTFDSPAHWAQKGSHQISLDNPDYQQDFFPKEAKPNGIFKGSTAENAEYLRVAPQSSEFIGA

c-MET = test system: c-MET; parameters: method as in PMID 29758406; conditions: cited from earlier work
EGFR^T790M [11] = target: T2, EGFR^T790M; conditions: cited from earlier work
EGFR^L858R = test system: EGFR^L858R; parameters: method as in PMID 29758406; conditions: cited from earlier work
four cancer cell lines = test system: four cancer cell lines; parameters: method as in PMID 32920363; conditions: read-out: GI50 against four cancer cell lines; cited from earlier work
BRAF^V600E [12] = conditions: cited from earlier work
EGFR [13] = target: T3, EGFR; parameters: CD, amino acids 645–1186); His6 (N); made in house; host or cells: Sf-9 insect cells (baculovirus; pBlueBacHis2B / pFASTBacHTc; conditions: cited from earlier work

Structure (SMILES)	IC50 [1] [nM]	IC50 (BRAF^V600E [2]) [nM]	selectivity index toward EGFR^T790M protein over wild-type EGFR (EGFR^T790M [3]) [fold]	IC50 (EGFR^T790M [3]) [nM]	IC50 [4] [nM]	viability at 96 h, 50 µM [5] [%]	IC50 [6] [nM]	IC50 [7] [nM]	IC50 [8] [nM]	GI50 [9] [nM]	IC50 (EGFR [10]) [nM]	fold more potent than erlotinib (EGFR IC50) (EGFR [10]; relative to erlotinib IC50 = 80 nM) [fold]	IC50 (c-MET) [nM]	IC50 (EGFR^T790M [11]) [nM]	IC50 (EGFR^L858R) [nM]	GI50 (four cancer cell lines) [nM]	IC50 (BRAF^V600E [12]) [nM]	IC50 (EGFR [13]) [nM]
CCOC(=O)c1[nH]c2ccc(Cl)cc2c1CNCCc1ccc(N2CCCC2)cc1 [Compound 3b, Ethyl 5-chloro-3-((4-(pyrrolidin-1-yl)phenethylamino)methyl)-1H-indole-2-carboxylate]	32 ± 3	39 ± 3	8	9.2 ± 2	1120 ± 10	91	30 ± 3	30 ± 3	32 ± 3	31	74 ± 5							
CCOC(=O)c1[nH]c2ccc(Cl)cc2c1CNCCc1cccc(N2CCCCC2)c1 [Compound 3e, Ethyl 5-chloro-3-((3-(piperidin-1-yl)phenethylamino)methyl)-1H-indole-2-carboxylate]	30 ± 3	35 ± 3	8	8.6 ± 2	960 ± 10	92	27 ± 2	29 ± 3	30 ± 3	29	68 ± 5	1.2						
CCc1ccc(Cn2cc(-c3cc(-c4ccc(Br)cc4)nc(N)n3)c3ccccc32)cc1 [Compound II]													595	94	99			
Cc1c2n(c3ccc(Cl)cc13)C(=O)CN(CCc1ccc(N3CCOCC3)cc1)C2=O [Compound VI]																1110	150	80
